Measurements as given in patent US9409907B2, “Inhibitor compounds” (Cancer Research Technology Limited, priority 2012, dated 2016).

Biological target: full length MPS1 (Homo sapiens (Human), UniProt P33981)
Test: Measurement of inhibition of MPS1 kinase (Caliper EZ reader mobility-shift enzyme assay)
Type: biochemical
Settings: full length MPS1 12.5 nM or 3 nM, H236 peptide 5 μM, ATP 10 μM, 60 min at room temperature
Experimental: Measurement of Inhibition of MPS1 Kinase
The reaction was carried out for 60 min at room temperature and stopped by the addition of buffer (10 μl) containing 20 mM EDTA, 0.05% (v/v) Brij-35, in 0.1M HEPES-buffered saline (Free acid, Sigma, UK). The plate was read on a Caliper EZ reader II (Caliper Life Sciences).
The % inhibition of the compounds is calculated relative to the means of selected control wells.

Chain of full length MPS1 (P33981 whole entry): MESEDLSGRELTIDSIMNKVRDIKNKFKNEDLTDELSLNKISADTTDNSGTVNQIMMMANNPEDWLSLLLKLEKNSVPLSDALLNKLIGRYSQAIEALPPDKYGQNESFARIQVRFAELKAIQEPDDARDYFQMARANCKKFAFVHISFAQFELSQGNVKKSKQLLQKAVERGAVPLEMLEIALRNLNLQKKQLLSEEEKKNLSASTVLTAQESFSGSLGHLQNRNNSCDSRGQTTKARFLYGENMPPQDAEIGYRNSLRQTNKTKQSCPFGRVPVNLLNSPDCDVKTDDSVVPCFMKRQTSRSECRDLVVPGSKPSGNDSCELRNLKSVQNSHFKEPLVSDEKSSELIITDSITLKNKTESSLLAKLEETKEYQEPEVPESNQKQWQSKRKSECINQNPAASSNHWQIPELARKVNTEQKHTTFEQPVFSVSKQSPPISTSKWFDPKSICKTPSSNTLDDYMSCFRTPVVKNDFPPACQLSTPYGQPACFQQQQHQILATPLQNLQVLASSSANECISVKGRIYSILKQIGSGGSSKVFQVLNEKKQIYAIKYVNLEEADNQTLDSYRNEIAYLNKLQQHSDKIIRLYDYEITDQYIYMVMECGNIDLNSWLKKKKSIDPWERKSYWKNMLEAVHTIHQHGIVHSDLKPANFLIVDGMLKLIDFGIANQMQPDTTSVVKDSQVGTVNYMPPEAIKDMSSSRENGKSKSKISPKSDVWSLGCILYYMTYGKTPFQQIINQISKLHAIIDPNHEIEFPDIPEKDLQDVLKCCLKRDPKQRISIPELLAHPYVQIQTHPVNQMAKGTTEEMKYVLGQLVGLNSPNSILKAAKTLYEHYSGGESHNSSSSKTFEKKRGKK

| SMILES | IC50 [nM] |
| --- | --- |
| COC(C)(C)CNc1nccc2cnc(Nc3ccc(-c4cnn(C)c4)cc3OC(F)F)nc12 [Example 204] | 2 |
| N#Cc1ccc(Nc2ncc3ccnc(N4CCC5(COC5)C4)c3n2)c(Cl)c1 [Example 205] | 87 |
| COc1cc(C#N)ccc1Nc1ncc2ccnc(N3CCC4(COC4)C3)c2n1 [Example 206] | 17 |
| Clc1ccc(Nc2ncc3ccnc(N4CCC5(COC5)C4)c3n2)c(Cl)c1 [Example 207] | 94 |
| COc1cc(-c2cnn(C)c2)ccc1Nc1ncc2ccnc(-c3cncnc3)c2n1 [Example 208, N-(2-methoxy-4-(1-methyl-1H-pyrazol-4-yl)phenyl)-8-(pyrimidin-5H)pyrido[3,4-d]pyrimidin-2-amine] | 200 |
| COc1cc(-c2cnn(C)c2)ccc1Nc1ncc2ccnc(-c3ccncc3)c2n1 [Example 209, N-(2-Methoxy-4-(1-methyl-1H-pyrazol-4-yl)phenyl)-8-(pyridin-4-yl)pyrido[3,4-d]pyrimidin-2-amine pyridin-4-ylboronate] | 7 |
